Usually Km stands for the substrate concentration at which the rate is half of its maximum.

The target in data set [1] is T1, ATP-dependent translocase ABCB1 (Homo sapiens, UniProt P08183). The data set is described as follows: (§1) TP_TRANSPORTER: ATP hydrolysis in membrane fraction from High Five (BTI-TN5B1-4) cells. The class given is functional, cell membranes, BTI-TN-5B1-4. Particulars: bti-tn-5b1-4.
The target in data set [2] is T1, ATP-dependent translocase ABCB1. As to the kind of experiment: TP_TRANSPORTER: transepithelial transport (apical to basal) of Daunorubicin (Daunomycin) at a concentration of 200 nM in MDR1-expressing LLC-PK1 cells. Format: functional, cell-based. To be noted: pig, llc-pk1, 0.2 µM.
The target in data set [3] is P-glycoprotein 1 and 3 (MDR1a/MDR1b) (Mus musculus, UniProt P21447+P06795). The data set is described as follows: TP_TRANSPORTER: increase in brain concentration in mdr1a/1b(-/-) mouse. Format: functional, organism-based. To be noted: in vivo.
In data set [4] the target is T1, ATP-dependent translocase ABCB1. The data set is described as follows: TP_TRANSPORTER: transepithelial transport (apical to basal) of Dexamethasone at a concentration of 24.7 nM in MDR1-expressing LLC-PK1 cells. The class given is functional, cell-based. Particulars: pig, llc-pk1, 0.0247 µM.
Data set [5] has the same target. The data set is described as follows: TP_TRANSPORTER: transepithelial transport (apical to basal) of Digoxin at a concentration of 52.6 nM in MDR1-expressing LLC-PK1 cells. Particulars: pig, llc-pk1, 0.0526 µM. The class given is functional, cell-based.
The target in data set [6] is ATP-dependent translocase ABCB1 (P-glycoprotein) (Homo sapiens, UniProt P08183). Described as §1. Format: functional, cell membranes, BTI-TN-5B1-4. To be noted: membrane fraction from High Five (BTI-TN5B1-4) cells.
The target of data set [7] is T1, ATP-dependent translocase ABCB1. The data set is described as follows: TP_TRANSPORTER: transepithelial transport (apical to basal) of Loperamide at a concentration of 1 uM in MDR1-expressing LLC-PK1 cells. The class given is functional, cell-based. To be noted: pig, llc-pk1, 1 µM.
For data set [8] the target is unchanged. The data set is described as follows: TP_TRANSPORTER: transepithelial transport (apical to basal) of Progesterone at 7 nM in MDR1-expressing LLC-PK1 cells. To be noted: pig, llc-pk1, 0.007 µM. The class given is functional, cell-based.
For data set [9] the target is unchanged. As to the kind of experiment: TP_TRANSPORTER: transepithelial transport (apical to basal) of Vinblastine at a concentration of 22.5 nM in MDR1-expressing LLC-PK1 cells. Particulars: pig. Format: functional, cell-based.
In data set [10] the test system is CN1C(=O)CN=C(c2ccccc2)c2cc(Cl)ccc21. The data set is described as §1. Format: functional, cell membranes, BTI-TN-5B1-4.

T1 sequence (P08183 whole entry): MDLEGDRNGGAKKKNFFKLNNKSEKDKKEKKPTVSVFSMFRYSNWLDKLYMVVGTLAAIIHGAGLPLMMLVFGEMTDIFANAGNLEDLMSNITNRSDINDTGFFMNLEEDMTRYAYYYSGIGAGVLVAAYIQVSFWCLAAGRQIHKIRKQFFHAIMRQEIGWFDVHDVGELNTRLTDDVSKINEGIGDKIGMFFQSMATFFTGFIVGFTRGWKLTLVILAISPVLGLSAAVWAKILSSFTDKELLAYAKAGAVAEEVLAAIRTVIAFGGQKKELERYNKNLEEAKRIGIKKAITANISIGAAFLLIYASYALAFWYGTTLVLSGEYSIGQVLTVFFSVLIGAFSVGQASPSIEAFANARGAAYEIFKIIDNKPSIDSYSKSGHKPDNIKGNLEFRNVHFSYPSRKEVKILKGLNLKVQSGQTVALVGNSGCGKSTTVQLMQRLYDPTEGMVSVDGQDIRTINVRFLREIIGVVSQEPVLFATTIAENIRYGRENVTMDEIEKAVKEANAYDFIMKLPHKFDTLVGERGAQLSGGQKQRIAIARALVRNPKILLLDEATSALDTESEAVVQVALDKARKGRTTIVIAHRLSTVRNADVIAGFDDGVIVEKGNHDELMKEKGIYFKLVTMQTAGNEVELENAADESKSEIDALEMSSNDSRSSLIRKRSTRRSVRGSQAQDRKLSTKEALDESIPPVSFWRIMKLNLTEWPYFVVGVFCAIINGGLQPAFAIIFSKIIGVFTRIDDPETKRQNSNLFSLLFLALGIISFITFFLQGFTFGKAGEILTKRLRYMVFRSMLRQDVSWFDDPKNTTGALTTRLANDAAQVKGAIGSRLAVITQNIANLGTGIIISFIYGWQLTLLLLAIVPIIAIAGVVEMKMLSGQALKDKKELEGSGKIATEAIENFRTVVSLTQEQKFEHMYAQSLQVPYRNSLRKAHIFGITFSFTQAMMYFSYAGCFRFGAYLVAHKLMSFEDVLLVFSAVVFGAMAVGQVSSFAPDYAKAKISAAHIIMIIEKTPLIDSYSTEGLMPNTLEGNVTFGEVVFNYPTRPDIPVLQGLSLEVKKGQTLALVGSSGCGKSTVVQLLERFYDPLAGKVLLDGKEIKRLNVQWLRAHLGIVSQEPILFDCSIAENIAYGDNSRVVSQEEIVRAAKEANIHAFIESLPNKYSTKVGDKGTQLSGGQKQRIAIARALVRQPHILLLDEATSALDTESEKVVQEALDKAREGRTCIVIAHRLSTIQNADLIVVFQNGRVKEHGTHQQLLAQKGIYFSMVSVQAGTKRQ
Sequence of ATP-dependent translocase ABCB1 (P-glycoprotein) (P08183 whole entry): as above

In the case of `CN/C(=N/CCSCc1nc[nH]c1C)NC#N` [CIMETIDINE], the Activity entry in data set [1] was “is not a substrate [-]”.

`COc1cccc2c1C(=O)c1c(O)c3c(c(O)c1C2=O)C[C@@](O)(C(C)=O)C[C@@H]3O[C@H]1C[C@H](N)[C@H](O)[C@H](C)O1` [DAUNORUBICIN]: the Activity result in data set [2] and in [3] was “substrate [+]” throughout.

With `C[C@@H]1C[C@H]2[C@@H]3CCC4=CC(=O)C=C[C@]4(C)[C@@]3(F)[C@@H](O)C[C@]2(C)[C@@]1(O)C(=O)CO` [DEXAMETHASONE], the results for the Activity result in data set [1] and in [4] were “is not a substrate [-]” and “substrate [+]”, respectively.

Consider `C[C@H]1O[C@@H](O[C@H]2[C@@H](O)C[C@H](O[C@H]3[C@@H](O)C[C@H](O[C@H]4CC[C@@]5(C)[C@H](CC[C@@H]6[C@@H]5C[C@@H](O)[C@]5(C)[C@@H](C7=CC(=O)OC7)CC[C@]65O)C4)O[C@@H]3C)O[C@@H]2C)C[C@H](O)[C@@H]1O` [DIGOXIN], for which the Activity entry in data set [5] is “substrate [+]”.

Regarding `C[C@]12CC[C@@H]3c4ccc(O)cc4CC[C@H]3[C@@H]1CC[C@@H]2O[C@@H]1O[C@H](C(=O)O)[C@@H](O)[C@H](O)[C@H]1O` [ESTRADIOL 17B GLUCURONIDE], the Activity entry in [1] is “substrate [+]”.

On to `CN(C)C(=O)C(CCN1CCC(O)(c2ccc(Cl)cc2)CC1)(c1ccccc1)c1ccccc1` [LOPERAMIDE], for which the Km in data set [6] stood at 13.8 µM. Also, the Activity result in data set [7] was “substrate [+]”.

Consider `CC(=O)[C@H]1CC[C@H]2[C@@H]3CCC4=CC(=O)CC[C@]4(C)[C@H]3CC[C@]12C` [PROGESTERONE], for which, in data set [8], the Activity result is “is not a substrate [-]”.

For `CC[C@]1(O)C[C@@H]2CN(CCc3c([nH]c4ccccc34)[C@@](C(=O)OC)(c3cc4c(cc3OC)N(C)[C@H]3[C@@](O)(C(=O)OC)[C@H](OC(C)=O)[C@]5(CC)C=CCN6CC[C@]43[C@@H]65)C2)C1` [VINBLASTINE], the Activity result in [9] was “substrate [+]”.

“ATP-dependent translocase ABCB1 (Homo sapiens)”: the Michaelis constant (Km) in [10] stood at 72.4 µM.

The record behind these values is ChEMBL document CHEMBL2074016, “Comparative studies on in vitro methods for evaluating in vivo function of MDR1 P-glycoprotein” (Pharm Res, 2001).
